From publication PMC4821887, “Identification of chemicals that mimic transcriptional changes associated with autism, brain aging and neurodegeneration” (Nature Communications, 2016)
“Also recorded” adds a separate entry of the source.

Legend:
[1] = tested on: mouse cortical neuron-enriched cultures; assay: RNA-seq transcriptional screen with hierarchical clustering and cluster membership; assay type: cell-based; conditions: 24 h at non-toxic concentration; hierarchical clustering of 5,121 variably expressed genes
Protocol: Cultures were treated with the non-cytotoxic dose of each chemical, by exchanging half of the original medium with chemicals at 2 × concentration in prewarmed feeding medium, on DIV 7 for 24 h in 12-well plates at a density of 5 × 10^5 cells per well. RNA was isolated using RNeasy plus mini kit (Cat. #74134, Qiagen). RNA yield and quality were determined using a Nanodrop 1000 Spectrophotometer (Thermo Scientific). Samples were further assessed for quality using either an Agilent Bioanalyzer 2100 or TapeStation 2200 to obtain a RIN. RIN values exceeding 7 were used for sequencing. RNA samples were used to generate and barcode complementary DNA libraries using the TruSeq RNA Library Preparation Kit at the UNC High Throughput Sequencing Facility. Pools of 24 multiplexed samples were sequenced per lane on an Illumina HiSeq 2500 using 50-bp paired-end reads.
RNA-seq reads were filtered using TagDust and aligned to the reference mouse genome (mm9) with TopHat using default parameters. Reads aligning to ribosomal RNA genes were removed. Transcript abundance was estimated by computing Reads per kilobase per million mapped reads (RPKM) using RefSeq gene models aggregated by gene symbol. For differential expression analyses, raw counts over RefSeq exons were used, and then were compared across samples using DESeq[62].
RPKMs for all RefSeq genes and all samples were filtered such that a given gene had >90% of samples with RPKM >0 and gene length exceeded 500 bp. RPKMs were then log10-transformed, quantile-normalized, median-centred, and the effects due to culture or sequencing batch were removed using a mixed model analysis of variance. This batch correction step was performed on individual experiments rather than chemical–vehicle ratios to reduce the effects due to variations in culture composition as well as batch-to-batch variations at the level of sequencing. Genes were then median-centred again, and filtered such that their s.d. exceeded 0.1. Chemical replicates were then combined using the median. Classes of chemicals were then discovered in two ways. First, we performed hierarchical clustering using average linkage and Pearson correlation distance measures. The boundaries of the discovered classes from clustering were set by computing pairwise Spearman correlations for all samples. A given cluster had to have at least three members with the minimum pairwise Spearman correlation coefficient exceeding 0.2, though cluster members often exceeded a correlation of 0.6 (Supplementary Fig. 5c,d). Seven chemical clusters were discovered, however one was removed due to failing to have a positive silhouette width, a metric of cluster robustness. These definitions enabled the three positive control topoisomerase inhibitors to form a cohesive group of chemicals with known structural and functional similarity (cluster 5). None of the culture or sequencing batches contributed to the formation of any one of the final six clusters (Supplementary Fig. 4).

[2] = tested on: Rest, Gsta4, Gstm1, Hmox1 transcripts in cortical cultures; assay: Quantitative real-time PCR of cluster 2 upregulated genes; assay type: cell-based, mouse; conditions: fenamidone 10 μM or indicated doses, 24 h, relative to vehicle
Protocol: Total RNA was extracted and purified using the RNeasy plus mini kit (Qiagen) following the manufacturer's instructions. RNA was quantified using Nanodrop 1000 (Thermo Scientific) and reverse transcribed using iScript Reverse Transcription Supermix (Bio-Rad). Quantitative real-time PCR analysis was performed in technical duplicates using SYBR Green PCR master mix (Applied Biosystems) in a 7500 Real-Time PCR instrument (Applied Biosystems). An amount of 10 ng of complementary DNA was used in each reaction. Fold change of expression of the target RNA in each treatment condition relative to the untreated sample were calculated by raising 2 to the power of −ΔΔCt. ΔΔCt was calculated by subtracting the ΔCt of the untreated sample to the ΔCt of each treatment condition. The ΔCt of each sample was calculated by subtracting the average Ct of Gapdh to the average Ct of the target RNA. The following primers were used at a final concentration of 0.5 μM:
Rest (F: 5′-[…]-3′, R: 5′-[…]-3′); Gsta4 (F: 5′-[…]-3′, R: 5′-[…]-3′); Gstm1 (F: 5′-[…]-3′, R: 5′-[…]-3′); Hmox1 (F: 5′-[…]-3′, R: 5′-[…]-3′); and Gapdh (F: 5′-[…]-3′, R: 5′-[…]-3′).

[3] = tested on: mitochondrial superoxide in cortical neurons; assay: Mitochondrial superoxide detection (MitoSOX Red live-cell imaging); assay type: cell-based, mouse; conditions: 2 h treatment, MitoSOX, vincristine 500 µM in Supplementary Fig. 10b
cortical neurons = assay: Soma morphology (proportion of cells with altered soma morphology) in live-cell imaging; assay type: cell-based, mouse; conditions: 2 h treatment, vincristine 500 µM in Supplementary Fig. 10c
purified tubulin = assay: Tubulin polymerization assay (cell-free, BK011P); assay type: biochemical; conditions: 37 °C, fluorescence over 60 min, equimolar doses
[4] = tested on: mouse cortical neuron cultures; assay: Fluorescence immunocytochemistry for cellular composition (NeuN, Gfap, Iba1); assay type: cell-based; conditions: 10 μM, 24 h, relative to vehicle
[5] = tested on: mouse cortical neuron cultures; conditions: mouse, 24 h, 10 µM
[6] = in vivo; cited from earlier work

In the case of CSC1=N[C@@](C)(c2ccccc2)C(=O)N1Nc1ccccc1 [fenamidone], the “Chemical cluster assigned by gene expression” value [1] is reported as “cluster 2”, the “Expression of Nrf2 target antioxidant response genes and Rest (qRT-PCR validation)” value [2] is reported as “Upregulated” and the “Mitochondrial superoxide (O2−) production” value [3] is reported as “dose dependent”. The “Mitochondrial superoxide (O2−) production” value ([3]; listed as Fenamidone) was “concentration-dependent increase”, the “Soma swelling / aberrant cell morphology” value (cortical neurons) was “dose dependent” and the “Soma swelling / aberrant cell morphology” value (cortical neurons; listed as Fenamidone) was “swelling of neuronal soma”. The “Effect on tubulin polymerization” value (purified tubulin) was “did not impair”, the “Change in cellular composition (number of NeuN, Gfap or Iba1 positive cells)” value [4] was “did not; also recorded: no significant change” and the “% Dead cells (vehicle subtracted)” value [5] was 1.638%. The “Neurotoxicity in a set of assays used by regulatory agencies” value [6] was “No evidence of neurotoxicity”.
